Source: patent US20070232677A1, “Treatment and prevention of vascular hyperplasia using polyamine and polyamine analog compounds” (priority 2006, published 2007)
Entries after “also recorded” stand apart in the source; their conditions may differ.

Tests used:
[1] = system: baboon vascular grafts (graft intimal hyperplasia); test: Inhibition of graft intimal hyperplasia by polyamine infusion, baboon aortoiliac bypass graft model; type: in vivo; design: thickness of grafts, Left Proximal Ave. / thickness of grafts, Left Distal Ave. (Treated site): unit not given here; conditions: for thickness of grafts, Left Distal Ave. (Treated site): left distal anastomosis infused with polyamine; for thickness of grafts, Left Distal Ave. (Treated site) / thickness of grafts, Left Proximal Ave.: pump 2.5 ul/hr for 28 days, one animal per line; for thickness of grafts, Left Proximal Ave.: polyamine-infused left graft, proximal anastomosis upstream of polyamine administration
Procedure: The procedure of Chen et al., Journal of Vascular Surgery 31(2):354 (2000) was used to prepare the animals. Briefly, baboons underwent bilateral aortoiliac bypass grafting with expanded polytetrafluoroethylene grafts. The distal anastomosis of one graft (the left graft) was infused with polyamine; the distal anastomosis of the contralateral graft (right graft) was infused with placebo (saline). The drugs were infused with the Alzet 2ML4 pump at a flow rate of 2.5 ul/hr for 28 days. For administration of CGC-11093, the pump contained 4.4 mg/ml (10 mM) drug and delivered 266 ug/day (7.5 mg in 28 days). For administration of CGC-11159, drug concentration was also at 10 mM; the pump delivered 646.2 ug/day (18.1 mg in 28 days). After 28 days the grafted vessels were harvested and analyzed. All anastomosis/graft samples were harvested by in vivo pressure-perfusion fixation with 10% Neutral Buffered Formalin (NBF) and fixed further overnight in 10% NBF. Samples were cut into several sections (noting proximal and distal) and marked with green dye for standard overnight processing. Processed samples were embedded in paraffin sectioned at […] intervals and stained with conventional hematoxylin and eosin (H&E). For morphometric measurements and analysis, H&E sections were imaged with a Nikon EFD-3 microscope with darkfield and polarized light epiluminescence and an RT Slider Diagnostic Camera. Graft and vessel sections were analyzed with respect to total neointimal area and maximal thickness. Morphometric analysis was performed using Image-Pro Plus 4.5 (Media Cybernetics) software. All images were digitized and archived.

[2] = system: pig femoral AV grafts (graft vein anastomosis/proximal vein, venous neointimal hyperplasia); test: Histopathology of PTA-injured porcine arteriovenous (AV) grafts with perivascular drug infusion; type: in vivo; conditions: for decrease in luminal stenosis versus placebo: perivascular injections, summary of results, dose not given
Procedure: This example was performed to determine the effect of injections of CGC-11093 and CGC-11159 on the vasculature of pigs following arteriovenous grafting. The histopathology of reactive and inflammatory responses of pig femoral AV grafts 14 days after Mercator Microsyringe infusion with 1 mg CGC-11093 (6 sites), 10 mg CGC-11093 (2 sites), 10 mg CGC-11159 (8 sites), or placebo saline injection (8 sites) in conjunction with percutaneous transluminal angioplasty (PTA) of the graft vein anastomosis and the proximal vein was assessed.
The methods used were as follows: all graft-vein anastomosis/proximal vein (GVA/PV) sites were subjected to angioplasty and perivascular injection via Mercator Microsyringe. Angioplasty was performed and drugs were infused 14 days after graft implant; animals were sacrificed 14 days later for histopathological examination. A total of 24 GVA/PV sites were evaluated. Six sites received 1 mg of CGC-11093; two sites received 10 mg CGC-11093, eight sites received 10 mg of CGC-11159, and eight sites received placebo injection with saline. All injections were performed in conjunction with percutaneous transluminal angioplasty (PTA) of the GVA and PV.
After 14 days, the graft vein anastomosis sites (GVA/PV) were excised en bloc and perfused with formalin. Sectioning of the graft vein anastomosis was performed as follows: briefly, tissue sections were taken at approximately 5 mm intervals through the proximal vein (PV). Tissue sections were taken at approximately 3 mm intervals through the graft-vein anastomosis (GVA) site. Sections were taken at approximately […] intervals through the distal vein (DV). All tissues were routinely processed, embedded in paraffin, sectioned at 5 microns and stained with hematoxylin and eosin for histopathologic evaluation. Numerous histologic sections through each PV, DV and GVA were evaluated. Each section was labeled with the letter P, G, or D (P=proximal vein, G=graft vein anastomosis, and D=Distal vein) and with a corresponding number to indicate proximity to the graft vein anastomosis.
The histopathologic evaluation included a general description of relevant features regardirig tissue reaction and inflammation around the graft vein anastomosis (GVA) and through the proximal femoral vein (PV). Histopathologic features including inflammation, fibrosis, angiogenesis and venous neointimal hyperplasia (VNH) within the GVA and PV were assessed. Attempts were made to differentiate between histopathologic changes attributed to the surgical procedure, secondary affects of GVA, angioplasty and perivascular injection of drug via Mercator Microsyringe.
Initial histopathologic evaluation was performed on all tissues to define the common inflammatory and reactive changes in all specimens. An overall general description of changes in sections of PV and GVA was made. An estimate of the percent occlusion of the most severely affected segment in both the PV and GVA was made. Two precise, perpendicular cross sectional measurements of the lumen were made in the most severely affected section of the PV. In the GVA a single luminal diameter was measured in the most severely affected section. Next, a qualitative assessment of overall severity of VNH, as well as inflammation within the VNH and degree of angiogenesis within the VNH was made for both the PV and the GVA. Additionally, a general description of the overall perivascular tissue reaction around the PV and the GVA was recorded. Lastly, unique, and potentially significant, pathologic features were documented. Unique pathologic features generally included interpretation of the overall severity of the changes, presence or absence of an inflamed seroma, or presence of thrombosis or infection in the GVA or PV. When assessing the degree or severity of a certain histopathologic change (i.e. severity of VNH, etc) a qualitative scoring method was used. A score of 0=absent, 1=minimal, 2=mild, 3=moderate, 4=severe.

`CCNCCCCNCC1CC1CNCCCCNCC` (stereo not shown) [CGC-11098] was tested, and the “thickness of grafts, Left Distal Ave. (Treated site)” value (“thickness of grafts … (Treated site)” below) [1] was 1.778 and the “thickness of grafts, Left Proximal Ave.” value [1] was 0.938.
In the case of `CCNCCCCNCC1CC1CNCCCCNCC` (stereo not shown) [CGC-11093], the “degree of VNH angiogenesis, summary” value ([2]; 1 mg) was “minimal to absent VNH angiogenesis”, the “histopathologic features/changes, summary” value ([2]; 1 mg) was “fewer significant or potentially deleterious histopathologic features; also recorded: less severe histopathologic changes” and the “severity of VNH inflammation, summary” value ([2]; 1 mg) was “minimal VNH inflammation”. For the same compound, the “severity of overall VNH in PV and GVA, summary” value ([2]; 1 mg) was “minimal amount of VNH in both the PV and GVA”, the “vascular occlusion, summary” value ([2]; 1 mg, compared with other animals in the study) was “less severe vascular occlusion than other animals in the study” and the “decrease in luminal stenosis versus placebo” value [2] was 49.2%. For the same compound, the “thickness of grafts … (Treated site)” value [1] was 1.072 and the “thickness of grafts, Left Proximal Ave.” value [1] was 0.499.
With `CCCCCNCCCCNCC1CC1CNCCCCNCC` (racemic) [CGC-11302, N-{2-[(4-Ethylamino-butylamino)-methyl]-cyclopropylmethyl}-N′-pentyl-butane-1,4-diamine] the “thickness of grafts … (Treated site)” value [1] was 0.822 and the “thickness of grafts, Left Proximal Ave.” value [1] was 1.047.
With `CCNCCCCNCCCCNCCCCNCCCCNCCCCNCCCCNCCCCNCCCCNCCCCNCC` [CGC-11159, CH3CH2—NH—(CH2CH2CH2CH2—NH—)9—CH2CH3] the “degree of VNH angiogenesis in PV and GVA, summary” value ([2]; 10 mg) was “greater degree of VNH angiogenesis in the PV and GVA”, the “incidence of GVA/PV thrombosis” value ([2]; 10 mg) was “higher incidence of GVA/PV thrombosis” and the “luminal diameter of PV, summary” value ([2]; 10 mg) was “more likely to have a smaller luminal diameter”. The “perivascular tissue reaction (inflammation around the graft)” value ([2]; 10 mg) was “prominent, nodular lymphofollicular inflammation forming a rim surrounding the outside surface of the graft; also recorded: prominent, nodular to coalescing lymphocytic inflammation around the implanted graft material; also recorded: more prominent abnormal perivascular tissue reactions”, the “severity of overall VNH in PV and GVA, summary” value ([2]; 10 mg) was “more severe VNH in both the PV and GVA” and the “unique histopathologic features, summary” value ([2]; 10 mg) was “often developed luminal thrombosis of both the PV and GVA as well as prominent lymphofollicular inflammation surrounding the graft material”. The “sites that developed fibrin thrombosis within the graft, with some degree of vascular and/or graft occlusion” value ([2]; 10 mg, eight sites treated) was “five of eight”, the “luminal occlusion or stenosis of the PV and GVA, summary” value ([2]; 10 mg, most animals, generally associated with thrombosis of the graft) was “more severe luminal occlusion or stenosis of the PV and GVA” and the “severity of VNH inflammation, summary” value ([2]; 10 mg, probably associated with thrombus formation) was “greater severity of VNH inflammation”. The “decrease in luminal stenosis versus placebo” value [2] was 22.6%, the “decrease in average maximal thickness of hyperplasia in the vascular graft” value ([1]; left distal anastomosis compared with placebo-treated grafts (right proximal and distal anastomoses), 10 mM, 646.2 ug/day for 28 days) was about 50% and the “thickness of grafts … (Treated site)” value [1] was 0.336. For the same compound, the “thickness of grafts, Left Proximal Ave.” value [1] was 0.695.
